Assay results from patent US20250051395A1, “PEPTIDES AND METHODS FOR USE IN TREATING PAIN” (TAFALGIE THERAPEUTICS, priority 2021, published 2025).

Experiments:
[1] = tested on: carrageenan model (inflammatory pain), C57Bl6 mice; test: Carrageenan injection inflammatory pain model, Von Frey paw withdrawal threshold; format: in vivo; conditions: celecoxib subcutaneous, 20 mg/kg
Method: Inventors injected 20 μl of 1% λ-carrageenan (Sigma-Aldrich, 22049-5G-F) in 1×PBS into the plantar surface of the left hind paw of the mouse with a Hamilton syringe. The carrageenan injection was used as an inflammatory pain model.
(§1) The Von Frey's uses Von Frey (VF) hair or fibers, which are small pieces of nylon rod, approximately 50 mm in length to test a rodent's sensitivity to a mechanical stimulus. In this test, the animal stands on an elevated mesh platform, and the Von Frey hairs are inserted through the mesh to poke the animal's hindpaw. Normal reactions for the animal include withdrawing or licking or shaking the paw. The “up-down” Von Frey method is used to determine the mechanical force required to elicit a paw withdrawal response in 50% of animals. Here, mice were placed in plastic chambers on a wire mesh grid and stimulated with von Frey filaments (Bioseb) by the “up-down” method (45) starting with a 1 g filament, and using 0.04 and 4 g filaments as the cutoffs.
The experiments were conducted on eight-week-old male WT C57Bl6. Three groups of 8 mice were used.
As previously described, measurement with Von Frey filaments by the up/down method for determining the baseline was done. Then, an intraplantar injection of 20 μl of carrageenan (1%) was performed into a hind paw. […] Celecoxib is a well-known drug used as positive control.

[2] = tested on: paw incision model (postoperative pain), C57Bl6 mice; test: Paw incision (Brennan) postoperative pain model, Von Frey paw withdrawal threshold, curative treatment; format: in vivo; conditions: morphine oral, 1 mg/kg, D1 after paw incision
Method: Mice were anesthetized with ketamine (100 mg/kg IP) and xylazine (10 mg/kg IP) and a longitudinal incision was made through the skin and fascia of the right hind paw. Forceps were used to elevate the flexor digitorum brevis muscle longitudinally and an incision was made through the muscle with a scalpel, to cut it into two halves. The wound was closed with sutures, and the animals were allowed to recover and returned to their cages. The paw incision was used as postoperative pain model.
as §1
The experiments were conducted on eight-week-old male WT C57Bl6. Three groups of 8 mice were used. […]

[3] = tested on: Spared Nerve Injury (SNI) model, C57Bl6 mice; test: Spared Nerve Injury (SNI) model of neuropathic pain, Von Frey up-down paw withdrawal threshold; format: in vivo; conditions: for antalgic effect when administered orally: per os, 7 days after surgery, vs vehicle (FIG. 5)
Method: Mice were anesthetized with ketamine (100 mg/kg IP) and xylazine (10 mg/kg IP) and the left sciatic nerve was exposed under aseptic conditions. The distal trifurcation of the sciatic nerve was identified and the tibial and common peroneal branches were ligated with polypropylene nonabsorbable 6-0 sutures (Ethicon); 1 mm was cut out, leaving the sural branch intact. The wound was closed with sutures, and the animals were allowed to recover and returned to their cages.
as §1
The experiments were conducted on eight-week-old male WT C57Bl6 mice. Three groups of 8 mice were used. Peptide of SEQ ID NO: 1 is resuspended in 0.9% NaCl at [0.6 mg/mL]. The peptide was diluted and used at a concentration of 0.3 mg/kg in this study.
After having measured the base threshold of mice with Von Frey (VF) filaments by the up/down method, the SNI model is set into place. The mice are anesthetized, ligature of the tibial nerve and of the fibular nerve is put into practice and these two nerves are then severed. The sural nerve left intact develops neuropathy quite rapidly. The occurrence of neuropathy is ascertained after 3 days post-surgery. A decrease in the response threshold to Von Frey filaments of the ipsilateral paw is thereby observed.
7 days after surgery, the response threshold is again measured. 100 μl/10 g of each of the peptide solutions, of vehicle and pregabalin solution are then blind-injected subcutaneously for the experimenter.
The same protocol was used as described in 1.1 except that the administration of the peptide, vehicle and pregabalin was done 14 days after surgery using per os administration for the peptide and vehicle.
For per os administration, the peptide of SEQ ID NO: 1 was diluted at a concentration of 30 μg/mL in a solution of 1% w/v Hydroxypropylmethylcellulose (Sigma-aldrich #423238, batch MKCD3665), 0.5% v/v Tween 80 (Euromedex #2002-A, batch 100412/16S407), referred then after as HPMC solution (vehicle).
Vehicle and peptide solution were orally administered using two gavage needles. […]

[4] = tested on: injury-induced mechanical hypersensitivity in mice; conditions: cited from earlier work
[5] = pregabalin 5 mg/kg by gavage, day 14 post-SNI

With `Cc1ccc(-c2cc(C(F)(F)F)nn2-c2ccc(S(N)(=O)=O)cc2)cc1` [celecoxib] the “time of maximum antalgic effect” value [1] was 2 h.

For `CN1CC[C@]23c4c5ccc(O)c4O[C@H]2[C@@H](O)C=C[C@H]3[C@H]1C5` [morphine], the response threshold [2] was “increase in the response threshold”.

In the case of `CC(C)C[C@H](CN)CC(=O)O` [pregabalin, reference compound], the “effect on mechanical threshold at 4 h post-administration” value [3, 5] was “completely abolished” and the “time of maximum reversal effect on mechanical threshold” value [3, 5] was 2 h.

For “TAFA-4 full length protein: human TAFA-4 mature protein of 105 amino acid residues, secreted neurokine of the prior art”, the “antalgic effect when administered orally” value [3] is given as “did not show significant antalgic effect”, the “antalgic effect when administered orally” value ([3]; listed as TAFA4) is given as “No statistical differences” and the “mechanical hypersensitivity (inflammatory, post-operative, nerve injury-induced)” value ([4]; intrathecal and subcutaneous administration, male and female mice) is given as “reverses inflammatory, post-operative and nerve injury-induced mechanical hypersensitivity”. For the same compound, the “prolonged nerve injury-induced mechanical hypersensitivity of TAFA-4 gene deleted mice” value ([4]; intrathecal injection, TAFA-4 gene deleted mice) was “reversed”.
